This assay addresses Mothers against decapentaplegic homolog 3 (Homo sapiens, UniProt P84022). Kind of assay: SMAD3 transcription factor inhibitors, dose response (AID 715).
Chain of Mothers against decapentaplegic homolog 3 (P84022 whole entry): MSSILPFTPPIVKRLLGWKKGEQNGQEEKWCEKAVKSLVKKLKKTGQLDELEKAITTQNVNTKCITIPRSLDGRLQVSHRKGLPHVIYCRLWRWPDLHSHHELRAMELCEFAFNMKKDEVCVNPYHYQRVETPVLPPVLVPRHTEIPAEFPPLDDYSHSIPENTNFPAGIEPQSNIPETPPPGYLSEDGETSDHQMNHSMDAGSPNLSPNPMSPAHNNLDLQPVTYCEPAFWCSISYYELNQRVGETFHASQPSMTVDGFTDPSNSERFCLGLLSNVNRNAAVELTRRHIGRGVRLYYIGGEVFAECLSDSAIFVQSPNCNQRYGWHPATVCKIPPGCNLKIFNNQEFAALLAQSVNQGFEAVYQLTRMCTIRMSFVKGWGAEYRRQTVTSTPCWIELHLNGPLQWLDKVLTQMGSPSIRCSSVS
The term IC50 denotes the concentration needed to halve the response being measured. Read a high IC50 as a need for much substance. Turning to `CCN(CC)P(=O)(NC(=O)C(Cl)(Cl)Cl)N(CC)CC` [MLS000564159], it took 14.1 µM to reach half-maximal inhibition (IC50). The value for `O=C1C=CC(CN=Nc2nccs2)C=C1[N+](=O)[O-]` (centres undefined) [(4Z)-2-nitro-4-[(2-thiazolylhydrazo)methylidene]-1-cyclohexa-2,5-dienone] was 30.9 µM; that for `CC1(C)CC(=O)C(C2(O)C(=O)NC(=O)NC2=O)C(=O)C1` [5-(4,4-dimethyl-2-oxidanyl-6-oxidanylidene-cyclohexen-1-yl)-5-oxidanyl-1,3-diazinane-2,4,6-trione] was 2.3 µM.

`Cc1ccc(-[n+]2c(O)csc2[C-](C(Cl)=C(Cl)Cl)[N+](=O)[O-])cc1` [(2E)-3-(4-methylphenyl)-2-[2,3,3-tris(chloranyl)-1-nitro-prop-2-enylidene]-1,3-thiazolidin-4-one] showed a 50% inhibitory concentration (IC50) of 27.7 µM.

For the origin of these results see BindingDB's records for doi:10.7270/Q2G44NQ4 (Emory University, 2007).
